Experimental data from ChEMBL document CHEMBL3286323, “The design and synthesis of novel SGLT2 inhibitors: C-glycosides with benzyltriazolopyridinone and phenylhydantoin as the aglycone moieties” (Bioorg Med Chem, 2014).

Key:
[1] = target: T1, Sodium/glucose cotransporter 1 (Homo sapiens, UniProt P13866); assay: Inhibition of human SGLT1 expressed in CHOK1 cells assessed as inhibition of [14C]-AMG uptake after 3 hrs by microbeta scintillation counting analysis; format: cell-based, CHO-K1
T1 sequence (P13866 whole entry): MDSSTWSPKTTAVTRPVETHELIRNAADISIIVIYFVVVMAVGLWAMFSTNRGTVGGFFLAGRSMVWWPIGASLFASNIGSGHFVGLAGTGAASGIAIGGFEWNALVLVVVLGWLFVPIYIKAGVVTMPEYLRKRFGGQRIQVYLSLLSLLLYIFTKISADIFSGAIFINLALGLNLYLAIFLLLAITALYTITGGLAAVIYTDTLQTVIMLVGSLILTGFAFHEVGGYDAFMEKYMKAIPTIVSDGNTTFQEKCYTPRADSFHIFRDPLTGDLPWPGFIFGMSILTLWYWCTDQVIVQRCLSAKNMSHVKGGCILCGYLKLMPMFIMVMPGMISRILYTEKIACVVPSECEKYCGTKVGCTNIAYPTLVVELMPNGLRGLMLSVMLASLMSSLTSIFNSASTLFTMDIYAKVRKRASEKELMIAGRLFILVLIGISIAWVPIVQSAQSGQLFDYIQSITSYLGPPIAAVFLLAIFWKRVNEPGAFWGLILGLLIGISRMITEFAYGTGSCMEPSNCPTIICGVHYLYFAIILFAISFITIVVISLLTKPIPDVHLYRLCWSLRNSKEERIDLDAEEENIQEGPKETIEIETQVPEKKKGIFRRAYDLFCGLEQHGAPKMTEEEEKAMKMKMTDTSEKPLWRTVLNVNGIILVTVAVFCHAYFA

[2] = target: T2, Sodium/glucose cotransporter 2 (Homo sapiens, UniProt P31639); assay: Inhibition of human SGLT2 expressed in CHOK1 cells assessed as inhibition of [14C]-AMG uptake after 3 hrs by microbeta scintillation counting analysis; format: cell-based, CHO-K1
T2 sequence (P31639 whole entry): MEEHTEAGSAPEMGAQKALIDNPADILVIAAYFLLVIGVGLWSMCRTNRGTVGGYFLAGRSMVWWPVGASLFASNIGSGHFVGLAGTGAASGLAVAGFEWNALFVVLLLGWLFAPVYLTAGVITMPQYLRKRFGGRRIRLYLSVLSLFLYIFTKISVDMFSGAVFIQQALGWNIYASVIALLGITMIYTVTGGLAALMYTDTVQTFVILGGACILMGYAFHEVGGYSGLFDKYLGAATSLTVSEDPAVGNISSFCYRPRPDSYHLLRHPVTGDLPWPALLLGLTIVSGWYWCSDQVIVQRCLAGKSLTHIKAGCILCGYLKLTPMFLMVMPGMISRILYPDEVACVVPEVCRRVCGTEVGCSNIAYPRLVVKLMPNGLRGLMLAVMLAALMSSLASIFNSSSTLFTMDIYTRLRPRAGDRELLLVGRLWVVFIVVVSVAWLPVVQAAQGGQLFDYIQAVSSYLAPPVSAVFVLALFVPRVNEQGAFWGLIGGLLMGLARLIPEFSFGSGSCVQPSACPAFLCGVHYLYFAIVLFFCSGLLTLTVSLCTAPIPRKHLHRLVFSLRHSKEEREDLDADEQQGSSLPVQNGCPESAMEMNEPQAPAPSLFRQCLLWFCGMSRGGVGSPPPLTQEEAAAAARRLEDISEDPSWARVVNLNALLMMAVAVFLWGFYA

Cytochrome P450 2C19 = Cytochrome P450 2C19 (Homo sapiens, UniProt P33261); assay: Inhibition of CYP2C19 (unknown origin); format: ADME
Cytochrome P450 2C19, sequence (P33261 whole entry): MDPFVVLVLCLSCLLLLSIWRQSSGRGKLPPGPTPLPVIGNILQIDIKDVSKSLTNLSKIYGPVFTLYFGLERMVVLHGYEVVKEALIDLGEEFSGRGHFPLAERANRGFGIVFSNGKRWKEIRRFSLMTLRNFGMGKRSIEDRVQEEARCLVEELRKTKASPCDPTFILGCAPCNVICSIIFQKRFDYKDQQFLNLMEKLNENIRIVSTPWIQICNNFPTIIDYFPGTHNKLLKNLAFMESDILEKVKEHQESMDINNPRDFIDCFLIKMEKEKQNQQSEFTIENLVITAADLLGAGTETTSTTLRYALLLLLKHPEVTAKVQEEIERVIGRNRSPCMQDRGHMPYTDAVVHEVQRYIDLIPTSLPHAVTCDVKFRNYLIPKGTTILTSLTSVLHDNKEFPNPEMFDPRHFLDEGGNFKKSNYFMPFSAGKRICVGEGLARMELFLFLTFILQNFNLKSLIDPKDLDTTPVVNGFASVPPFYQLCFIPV

Cytochrome P450 2D6 = Cytochrome P450 2D6 (Homo sapiens, UniProt P10635); assay: Inhibition of CYP2D6 (unknown origin); format: ADME
Cytochrome P450 2D6, sequence (P10635 whole entry): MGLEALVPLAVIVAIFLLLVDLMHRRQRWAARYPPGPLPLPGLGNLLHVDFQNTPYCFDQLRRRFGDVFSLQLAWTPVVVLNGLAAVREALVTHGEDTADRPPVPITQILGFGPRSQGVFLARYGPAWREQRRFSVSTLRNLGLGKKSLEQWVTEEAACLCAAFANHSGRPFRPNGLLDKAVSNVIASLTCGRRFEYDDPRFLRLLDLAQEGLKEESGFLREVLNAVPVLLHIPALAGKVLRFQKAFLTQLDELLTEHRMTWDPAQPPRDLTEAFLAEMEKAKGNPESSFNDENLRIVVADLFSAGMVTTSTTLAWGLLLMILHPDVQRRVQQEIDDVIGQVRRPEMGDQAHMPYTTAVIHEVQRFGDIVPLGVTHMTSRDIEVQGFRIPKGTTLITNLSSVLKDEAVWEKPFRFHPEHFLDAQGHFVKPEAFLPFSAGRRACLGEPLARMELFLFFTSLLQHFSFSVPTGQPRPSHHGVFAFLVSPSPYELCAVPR

Cytochrome P450 3A4 = Cytochrome P450 3A4 (Homo sapiens, UniProt P08684); assay: Inhibition of CYP3A4 (unknown origin); format: ADME
Cytochrome P450 3A4, sequence (P08684 whole entry): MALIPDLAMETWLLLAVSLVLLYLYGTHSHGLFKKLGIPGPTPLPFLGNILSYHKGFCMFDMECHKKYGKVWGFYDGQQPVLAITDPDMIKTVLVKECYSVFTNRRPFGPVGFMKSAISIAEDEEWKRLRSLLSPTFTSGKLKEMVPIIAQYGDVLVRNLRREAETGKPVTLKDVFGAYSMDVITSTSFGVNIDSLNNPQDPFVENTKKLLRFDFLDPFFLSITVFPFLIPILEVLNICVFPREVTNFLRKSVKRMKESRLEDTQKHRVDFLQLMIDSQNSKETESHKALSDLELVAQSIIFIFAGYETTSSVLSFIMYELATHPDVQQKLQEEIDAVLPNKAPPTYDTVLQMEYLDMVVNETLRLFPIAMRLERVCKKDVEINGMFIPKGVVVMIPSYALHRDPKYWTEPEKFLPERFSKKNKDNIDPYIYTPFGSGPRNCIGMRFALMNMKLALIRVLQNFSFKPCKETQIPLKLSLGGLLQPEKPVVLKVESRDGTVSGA

[3] = Intrinsic clearance in rat liver microsomes; format: ADME; details: read-out: CLH
Cytochrome P450 1A2 = target: T3, Cytochrome P450 1A2 (Homo sapiens, UniProt P05177); assay: Inhibition of CYP1A2 (unknown origin); format: ADME
T3 sequence (P05177 whole entry): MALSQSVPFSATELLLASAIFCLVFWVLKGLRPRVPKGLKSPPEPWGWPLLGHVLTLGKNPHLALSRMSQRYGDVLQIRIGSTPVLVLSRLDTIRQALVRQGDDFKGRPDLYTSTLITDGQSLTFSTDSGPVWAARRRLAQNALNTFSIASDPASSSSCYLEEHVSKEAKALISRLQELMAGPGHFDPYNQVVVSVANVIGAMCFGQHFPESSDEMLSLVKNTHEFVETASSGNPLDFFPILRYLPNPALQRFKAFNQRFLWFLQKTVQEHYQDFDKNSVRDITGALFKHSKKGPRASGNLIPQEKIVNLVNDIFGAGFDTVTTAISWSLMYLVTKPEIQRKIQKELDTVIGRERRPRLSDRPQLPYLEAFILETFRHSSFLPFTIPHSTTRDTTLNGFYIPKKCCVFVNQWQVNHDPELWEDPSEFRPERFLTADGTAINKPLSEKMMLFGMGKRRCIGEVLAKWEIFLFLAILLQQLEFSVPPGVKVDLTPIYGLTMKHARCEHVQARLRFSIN

Cytochrome P450 2B6 = target: T4, Cytochrome P450 2B6 (Homo sapiens, UniProt P20813); assay: Inhibition of CYP2B6 (unknown origin); format: ADME
T4 sequence (P20813 whole entry): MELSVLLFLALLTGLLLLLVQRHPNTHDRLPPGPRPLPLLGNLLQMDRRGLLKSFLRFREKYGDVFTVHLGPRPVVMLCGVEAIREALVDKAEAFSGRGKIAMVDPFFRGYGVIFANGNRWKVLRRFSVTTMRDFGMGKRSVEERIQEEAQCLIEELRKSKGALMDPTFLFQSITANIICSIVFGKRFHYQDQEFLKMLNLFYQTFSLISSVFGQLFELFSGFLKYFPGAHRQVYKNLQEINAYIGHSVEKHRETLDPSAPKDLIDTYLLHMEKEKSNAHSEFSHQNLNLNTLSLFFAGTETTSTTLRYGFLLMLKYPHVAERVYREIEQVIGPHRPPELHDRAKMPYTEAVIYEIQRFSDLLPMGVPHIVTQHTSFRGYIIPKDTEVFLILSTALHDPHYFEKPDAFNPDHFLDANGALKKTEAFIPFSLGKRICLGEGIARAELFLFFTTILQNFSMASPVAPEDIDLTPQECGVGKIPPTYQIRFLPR

Cytochrome P450 2C9 = Cytochrome P450 2C9 (Homo sapiens, UniProt P11712); assay: Inhibition of CYP2C9 (unknown origin); format: ADME
Cytochrome P450 2C9, sequence (P11712 whole entry): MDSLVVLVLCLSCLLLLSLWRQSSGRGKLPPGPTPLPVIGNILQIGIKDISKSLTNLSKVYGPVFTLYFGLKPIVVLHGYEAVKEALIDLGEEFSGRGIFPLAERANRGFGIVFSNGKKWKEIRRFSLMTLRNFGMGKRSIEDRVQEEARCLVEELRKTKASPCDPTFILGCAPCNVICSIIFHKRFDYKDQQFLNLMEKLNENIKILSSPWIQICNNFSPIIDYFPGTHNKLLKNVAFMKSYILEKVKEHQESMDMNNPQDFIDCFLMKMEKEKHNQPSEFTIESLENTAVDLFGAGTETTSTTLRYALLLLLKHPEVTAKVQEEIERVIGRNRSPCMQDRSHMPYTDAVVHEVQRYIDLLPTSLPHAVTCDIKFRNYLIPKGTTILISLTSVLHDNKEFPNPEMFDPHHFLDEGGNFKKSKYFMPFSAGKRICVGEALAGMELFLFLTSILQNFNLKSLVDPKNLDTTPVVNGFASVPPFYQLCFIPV

[4] = Intrinsic clearance in human liver microsomes; format: ADME; details: read-out: CLH
[5] = Half life in rat; format: ADME, organism-based; details: in vivo
[6] = Oral bioavailability in rat; format: ADME, organism-based; details: in vivo

SMILES	IC50 [1] [µM]	IC50 [2] [µM]	also measured
O=c1n(Cc2cc([C@@H]3O[C@H](CO)[C@@H](O)[C@H](O)[C@H]3O)ccc2Cl)nc2ccc(Cl)cn12	> 90	0.08	–
O=c1n(Cc2cc([C@@H]3O[C@H](CO)[C@@H](O)[C@H](O)[C@H]3O)ccc2Cl)nc2ccc(Br)cn12	> 90	0.107	–
Cc1ccc2nn(Cc3cc([C@@H]4O[C@H](CO)[C@@H](O)[C@H](O)[C@H]4O)ccc3Cl)c(=O)n2c1	> 90	0.12	–
O=c1n(Cc2cc([C@@H]3O[C@H](CO)[C@@H](O)[C@H](O)[C@H]3O)ccc2Cl)nc2ccc(CO)cn12	–	0.141	–
O=c1n(Cc2cc([C@@H]3O[C@H](CO)[C@@H](O)[C@H](O)[C@H]3O)ccc2Cl)nc2ccc(C(F)(F)F)cn12	–	0.762	–
O=c1n(Cc2cc([C@@H]3O[C@H](CO)[C@@H](O)[C@H](O)[C@H]3O)ccc2Cl)nc2cc(C(F)(F)F)ccn12	> 90	0.252	–
COc1ccn2c(=O)n(Cc3cc([C@@H]4O[C@H](CO)[C@@H](O)[C@H](O)[C@H]4O)ccc3Cl)nc2c1	> 90	5.48	–
O=c1n(Cc2cc([C@@H]3O[C@H](CO)[C@@H](O)[C@H](O)[C@H]3O)ccc2Cl)nc2cc(OCC(F)(F)F)ccn12	> 90	5.7	–
Cc1cc2nn(Cc3cc([C@@H]4O[C@H](CO)[C@@H](O)[C@H](O)[C@H]4O)ccc3Cl)c(=O)n2cc1Cl	–	0.033	IC50 (Cytochrome P450 2C19): > 11 µM; IC50 (Cytochrome P450 2D6): > 11 µM; IC50 (Cytochrome P450 3A4): > 11 µM; microsomal CLint [3]: 2.8 µL/min/mg; IC50 (Cytochrome P450 1A2): > 11 µM; IC50 (Cytochrome P450 2B6): > 11 µM; IC50 (Cytochrome P450 2C9): > 11 µM; microsomal CLint [4]: 3.6 µL/min/mg
CN1C(=O)N(c2ccc(Cc3cc([C@@H]4O[C@H](CO)[C@@H](O)[C@H](O)[C@H]4O)ccc3Cl)cc2)C(C)(C)C1=O	83.1	0.248	–
CCN1C(=O)CN(c2ccc(Cc3cc([C@@H]4O[C@H](CO)[C@@H](O)[C@H](O)[C@H]4O)ccc3Cl)cc2)C1=O	–	0.0109	IC50 (Cytochrome P450 2C19): > 11 µM; IC50 (Cytochrome P450 2D6): > 11 µM; IC50 (Cytochrome P450 3A4): > 11 µM; microsomal CLint [3]: 1.9 µL/min/mg; IC50 (Cytochrome P450 1A2): > 11 µM; half-life [5]: 35 min; IC50 (Cytochrome P450 2B6): > 11 µM; IC50 (Cytochrome P450 2C9): > 11 µM; microsomal CLint [4]: 1.3 µL/min/mg; bioavailability [6]: 4%
CN1C(=O)CN(c2ccc(Cc3cc([C@@H]4O[C@H](CO)[C@@H](O)[C@H](O)[C@H]4O)ccc3Cl)cc2)C1=O	90	0.489	–

More lines, main results first:

IC50 [1] [µM]	IC50 [2] [µM]	SMILES	also measured
> 90	–	O=c1n(Cc2cc([C@@H]3O[C@H](CO)[C@@H](O)[C@H](O)[C@H]3O)ccc2Cl)nc2ccccn12	–
> 90	–	O=c1n(Cc2cc([C@@H]3O[C@H](CO)[C@@H](O)[C@H](O)[C@H]3O)ccc2Cl)nc2ccc(F)cn12	–
–	0.089	O=c1n(Cc2cc([C@@H]3O[C@H](CO)[C@@H](O)[C@H](O)[C@H]3O)ccc2Cl)nc2cc(Cl)ccn12	–
> 90	–	Cc1ccn2c(=O)n(Cc3cc([C@@H]4O[C@H](CO)[C@@H](O)[C@H](O)[C@H]4O)ccc3Cl)nc2c1	–
> 90	9.92	Cc1cccc2nn(Cc3cc([C@@H]4O[C@H](CO)[C@@H](O)[C@H](O)[C@H]4O)ccc3Cl)c(=O)n12	–
> 90	9	O=c1n(Cc2cc([C@@H]3O[C@H](CO)[C@@H](O)[C@H](O)[C@H]3O)ccc2Cl)nc2c(Cl)cccn12	–
> 90	3.3	O=c1n(Cc2cc([C@@H]3O[C@H](CO)[C@@H](O)[C@H](O)[C@H]3O)ccc2Cl)nc2c(F)cccn12	–
